Consider 12 compounds from article PMC9505218, “Nitrostilbenes: Synthesis and Biological Evaluation as Potential Anti-Influenza Virus Agents” (Pharmaceuticals, 2022).

Values joined by “and” are separate entries in the source; they are usually repeats but may differ in a detail not shown here. Identical values can stand only once. “Also recorded” adds a separate entry of the source. Like-named read-outs stand apart in the source and are kept apart here.

Data set [1] relates to influenza A Puerto Rico 8/34/H1N1 (PR8) virus. As to the kind of experiment: microbe, parasite or virus in culture. Format: cell-based. The settings on record: for IC50: Influenza A virus, A549, 24 h, read-out: IC50 (concentration causing 50% reduction in viral infection); for Selectivity Index (SI): ratio CC50/IC50, A549.
A further data set in a line: MTT cytotoxicity assay. Format: cell-based, human. The settings on record: human. As for the experimental part:
(§1) The cytotoxicity of RSV derivatives was evaluated on A549 cells using MTT (3-(4,5-dimethylthiazol-2-yl)-2,5-diphenyl tetrazolium bromide) reagent (Sigma-Aldrich, St. Louis, MO, USA). In this assay, cells were seeded in a 96-well plate at a concentration of 2 × 10^4/well in DMEM without phenol red and supplemented with 10% FBS. The compounds were dissolved in DMSO and added to the cell monolayer. After 24 h, 10 µL of the 5 mg/mL solution of MTT was added to the cell culture, which was incubated at 37 °C for 3 h. Then, the medium was solubilized in absolute isopropanol containing 0.1 N HCl. The absorbance of converted dye was measured in an ELISA plate reader at a wavelength of 590 nm. The results were used to calculate the 50% cytotoxic concentration (CC50), defined as the concentration of RSV derivatives required to reduce cell viability by 50% compared with the solvent-treated (DMSO) control condition.
A general note: Tetrazolium assays rely on reduction of a dye to a coloured formazan, in cell work by metabolically active cells.

The test system of data set [2] is influenza A PR/8/H1N1 virus. Format: cell-based.
In data set [3] the test system is influenza A PR/8/H1N1 virus. The data set is classed as cell-based. This is another data set of the same source.
Data set [4] relates to influenza A PR/8/H1N1 virus. The data set is classed as cell-based. As to conditions: supernatants from A549 treated with 10-30 μg/mL, 24 h.
Data set [5] deals with GSH-mediated antioxidant response. Nature of the data set: Glutathione assay in infected A549 cells. Format: cell-based, human. The settings on record: A549, 24 h PR8 infection and treatment. As for the experimental part:
The total glutathione was analyzed by the Glutathione Assay Kit (ADI-900-160 Enzo) following the manufacturer’s instructions. For GSSG quantification, the samples were deproteinized with metaphosphoric acid, and an aliquot was incubated with 2-vinylpyridine to derivatize the reduced form, GSH [46]. The GSH levels were obtained by the subtraction of GSSG from the total glutathione and then normalized to the protein content of each sample determined by the Bradford method (Bio-Rad, Hercules, CA, USA).

In the next data set the test system is A549 cells. As to the kind of experiment: MTT cytotoxicity assay. Format: cell-based, human. The method, then:
as §1

The subject of another data set is GSH level. More on the design: method as in PMID 15838800. The settings on record: infected conditions; cited from earlier work.
Where [6] appears, read: A549, MTT, 24 h, read-out: CC50 (concentration required to reduce cell viability by 50%).

With `Oc1ccc(/C=C/c2ccccc2)cc1Cl` [Compound 1], in data set [1], the IC50 was 20.7 µg/mL and 89 µM; the “Selectivity Index (SI)” value was found to be 4.2. Also, the CC50 at 24 h in “MTT cytotoxicity assay” is 87.3 µg/mL and 378 µM.
On to `Oc1ccc(/C=C/c2ccc(Cl)cc2Cl)cc1Cl` [Compound 2], for which, in [1], the IC50 was 13.5 µg/mL and 45 µM; the “Selectivity Index (SI)” value was found to be 2.9. The CC50 at 24 h in the data set “MTT cytotoxicity assay” was 39.5 µg/mL and 131 µM.
Consider `Oc1ccc(/C=C/c2ccc(Cl)cc2Cl)cc1` [Compound 3], for which, in data set [1], the IC50 was 12.2 µg/mL and 46 µM; the “Selectivity Index (SI)” value is reported as 2.4. Besides, the CC50 at 24 h in “MTT cytotoxicity assay” was 30.3 µg/mL and 114 µM.
Turning to `Oc1ccc(/C=C/c2ccc(C(F)(F)F)cc2)cc1Cl` [Compound 4], in data set [1], the IC50 is 14.6 µg/mL and 48 µM; the “Selectivity Index (SI)” value worked out at 2.6. Further, the CC50 at 24 h in the data set “MTT cytotoxicity assay” was 38.8 µg/mL and 129 µM.
For `Oc1ccc(/C=C/c2ccc(C(F)(F)F)cc2)cc1` [Compound 5], in data set [1], the IC50 is 23.4 µg/mL and 88 µM; the “Selectivity Index (SI)” value was 2.5. Moreover, in the data set “MTT cytotoxicity assay”, the CC50 at 24 h is 59 µg/mL and 223 µM.
In the case of `O=[N+]([O-])c1ccc(/C=C/c2ccc(O)c(Cl)c2)cc1` [Compound 6], in data set [1], the “inhibition of HA expression” value is listed as 75%; the IC50 was 17.1 µg/mL and 62 µM; the “Selectivity Index (SI)” value was 12.4. The CC50 at 24 h in “MTT cytotoxicity assay” (setting [6]) is 212 µg/mL and 770 µM. The “early viral nucleoprotein (NP) expression” value (“early viral nucleoprotein” for short) in [2] is recorded as “decrease”. In [3], the “viral titer / viral particle production (HAU)” value is “markedly decreased; also recorded: drastically reduced”. Besides, the “HA protein expression on MDCK cells infected with supernatants” value in data set [4] is given as “markedly reduced”. Moreover, the “rescue of GSH-mediated antioxidant response (total glutathione, GSH/GSSG)” value (from here on “rescue … (total glutathione, GSH/GSSG)”) in [5] is recorded as “do not rescue”.
On to `O=[N+]([O-])c1ccc(/C=C/c2ccc(O)cc2)cc1` [Compound 7], for which, in [1], the IC50 was 19.5 µg/mL and 80 µM; the “Selectivity Index (SI)” value came out at 5.9. Moreover, the CC50 at 24 h in the data set “MTT cytotoxicity assay” (setting [6]) is 116 µg/mL and 481 µM. The “early viral nucleoprotein” value in data set [2] is listed as “decrease”. The “viral titer / viral particle production (HAU)” value in [3] is “markedly decreased; also recorded: drastically reduced”. Also, the “HA protein expression on MDCK cells infected with supernatants” value in data set [4] is given as “markedly reduced”. Moreover, the “rescue … (total glutathione, GSH/GSSG)” value in data set [5] was “do not rescue”.
As to `N#Cc1ccc(/C=C/c2ccc(O)cc2)cc1` [Compound 8], in data set [1], the IC50 was 45.1 µg/mL and 203 µM; the “Selectivity Index (SI)” value came out at 2. Further, in “MTT cytotoxicity assay”, the CC50 at 24 h is 92 µg/mL and 415 µM.
With `COc1ccc(/C=C/c2ccc(O)cc2)cc1` [Compound 9], in data set [1], the IC50 was 31.7 µg/mL and 104 µM; the “Selectivity Index (SI)” value amounted to 3.3. Besides, the CC50 at 24 h in the data set “MTT cytotoxicity assay” was 106 µg/mL and 466 µM.
`O=[N+]([O-])c1ccc(/C=C/c2ccc(O)c(Br)c2)cc1` [Compound 12, (E)-2-Bromo-4-(4-Nitrostyryl)Phenol] had a melting point of 200.2 to 200.4 °C. Also, the “cytotoxicity on the A549 cell monolayer” value in the data set on A549 cells was “did not show cytotoxicity”. Also, in [5], the “rescue … (total glutathione, GSH/GSSG)” value is “do not rescue”.
In the case of `O=[N+]([O-])c1cc(/C=C/c2ccc(Cl)cc2)ccc1O` [Compound 13, (E)-4-(4-Chlorostyryl)-2-Nitrophenol], the melting point lay in the range of 176.5 to 177.9 °C. Also, the “cytotoxicity on the A549 cell monolayer” value with A549 cells was “did not show cytotoxicity”. Besides, the “early viral nucleoprotein” value in data set [2] was “decrease”. Further, the “rescue … (total glutathione, GSH/GSSG)” value in data set [5] is given as “do not rescue”.
Regarding `Oc1ccc(C=Cc2cc(O)cc(O)c2)cc1` [RSV, 3,4′,5-trihydroxystilbene], the “rescue of GSH level” value with GSH level is “did not rescue”.

The term melting point denotes the temperature of the solid-liquid transition.
